Reference: US9765115B2, “Inhibitors of metastasis, methods of generating such inhibitors and their therapeutic applications” (Board of Supervisors of Louisiana State University acting …, priority 2011, dated 2017)
Where a chain is given by its changes, count along the chain named. Entries after “also recorded” stand apart in the source; their conditions may differ.

Tests used:
Format in all cases: cell-based
PC-3CTRwt cells = assay: Transepithelial electric resistance (TER)
Procedure: Cells were plated on Transwell filters (0.4 μm pore size) and grown to confluency in complete medium (RPMI1640 containing 10% fetal bovine serum, 20 mM HEPES and antibiotics). TER of the cultures (in duplicate wells) was measured at several time intervals with EVOM volt-ohm meter as previously described (Shah et al, 2009). The readings were corrected for blank (TER values from the filter in bathing medium). The integrity and cell density of monolayers were carefully monitored.
To examine the effect of calcitonin (CT) on tight junctions (TJs), the transepithelial electric resistance (TER) of polarized PC-3 cells expressing either the vector (PC-3V), CTRwt or CTRΔESS was monitored for 8 hours after CT stimulation (FIG. 2A). Polarized PC-3V, PC-3 CTRwt and PC-3 CTR-ΔESS cells were serum-starved for 4 hours, then treated with or without 50 nM CT. TER was measured with EVOM volt-ohm meter, and results expressed as Ωcm^2±SEM (n=6). […] Since PC-3 cells secrete CT, the expression of CTRwt may have activated CT-CTR axis causing almost 40% reduction of TER in PC-3CTRwt cells.
The effect of CT on TJ functionality was tested by monitoring TER of PC-3CTRwt monolayers. […] Polarized PC-3-CTRwt cells were serum-starved for 4 hours, then treated with or without 50 nM CT. TER was measured with EVOM volt-ohm meter. The results are expressed as TER ±SEM (Ωcm^2±SEM; n=6). […] PCP was determined by diffusion of ˜4 kDa TRITC-conjugated dextran from the upper to the lower chamber in one hour. The results are expressed as μg/ml/hour of TRITC-Dextran diffused ±SEM (n=6; *p<0.05 (−CT v +CT, One way ANOVA and Newman-Keul's test)).
To understand the significance of CT-induced, PKA-dependent disassembly of TJs in PC cell adhesion and invasion, the action of CT was examined on TER, PCP, cell adhesion and invasion in PC-3CTRwt cells in the presence/absence of mPKI. […] Similarly, mPKI abrogated the actions of CT on PCP and invasion (FIGS. 20B and 20C respectively). Next, the adhesion of PC-3CTRwt cells was examined on culture dishes.

CTR-ZO-1 interaction [1] = assay: In situ proximity ligation assay (PLA); details: LNCaP cells, CT 50 nM, 30 seconds
Procedure: (§1) Fixed PC cells or tissues were immunolabeled with primary antibodies (anti-rabbit ZO-1 serum and anti-goat CTR serum) for overnight at 4° C. The secondary antibodies with attached PLA probes were supplied in the Duolink™ kit (Olink Bioscience, Uppsala, Sweden). CTR-ZO-1 interaction was observed by confocal microscopy at 400×. A red fluorescent dot indicated the two proteins are within 35 nm distance. The number of dots per cell was determined by Blobfinder™ image analysis software (Allalou et al., 2009).
(§2) Next, CTR-ZO-1 interaction was examined in PC-3CTRwt cells. […] Each dot represents an interaction between activated CTR and ZO-1, detected by in situ PLA™ using the Duolink® kit. Nuclei were stained with DAPI. The graph presents quantitative data of CTR-ZO-1 interactions in three separate but identical experiments (mean±SEM; n=6, p<0.001, paired t-test). […] Next, this phenomenon was examined in LNCaP cells, which are androgen-responsive and endogenously express CTR but not CT (Karpova et al., 2006). […] Finally, non-metastatic and metastatic PC specimens were examined in a similar experiment.
(§3) Since CTR directly interacts with ZO-1 through PDZ domain, whether CT-induced endocytosis of ZO-1 is caused by CTR-mediated events prior to or subsequent to CTR-ZO-1 interaction was tested. To determine the time course of CTR-ZO-1 interaction, in situ PLA assay was used (FIG. 15D). […] Representative micrographs are shown of CTR-ZO-1 interactions in PC-3CTRwt cells at various time periods (0-300 seconds) after CT stimulus. Each highlighted dot represents an interaction between activated CTR and ZO-1, detected by in situ PLA™ using the Duolink® kit. Nuclei were stained with DAPI. The line graph presents the mean±SEM of dots at each time point (n=6). […] Considering that ZO-1 endocytosis was observed after 1 minute of CT stimulus, it is conceivable that CTR-mediated events subsequent to CTR-ZO-1 interaction may be associated with TJ protein endocytosis.

CTR-ZO-1 interaction [2] = target: T1, CTR-ZO-1 interaction (Homo sapiens, UniProt P30988); assay: In situ proximity ligation assay (PLA); details: PC-3CTRwt cells
T1 construct: PCR generated full length CTRwt and CTRΔESS cDNAs were cloned directionally into pcDNA3.1 mammalian expression vector; FLAG (N); expressed in transfected cells; host or cells: PC-31 / PC-3 cells stably expressing FLAG-CTRwt; ZO-1 is the cells' own
T1 sequence (P30988 25-474): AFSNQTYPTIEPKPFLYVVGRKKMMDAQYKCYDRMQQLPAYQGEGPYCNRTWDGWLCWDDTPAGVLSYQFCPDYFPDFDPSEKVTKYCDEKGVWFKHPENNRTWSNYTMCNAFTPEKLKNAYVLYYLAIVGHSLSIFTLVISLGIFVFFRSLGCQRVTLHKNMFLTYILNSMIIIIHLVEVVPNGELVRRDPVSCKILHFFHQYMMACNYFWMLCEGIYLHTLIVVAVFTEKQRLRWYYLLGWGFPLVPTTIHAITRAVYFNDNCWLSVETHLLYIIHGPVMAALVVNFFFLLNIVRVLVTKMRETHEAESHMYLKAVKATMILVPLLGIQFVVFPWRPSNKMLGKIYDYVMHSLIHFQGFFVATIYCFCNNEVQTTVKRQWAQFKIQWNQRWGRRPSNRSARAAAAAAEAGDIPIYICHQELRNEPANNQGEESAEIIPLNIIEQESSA
Procedure: as §1, §2, §3

CTR-ZO-1 interaction [3] = target: T2, CTR-ZO-1 interaction (Homo sapiens, UniProt P30988, E471A/S472A/S473A); assay: In situ proximity ligation assay (PLA); details: PC-3CTRΔESS cells, with or without CT
T2 construct: PCR generated full length CTRwt and CTRΔESS cDNAs were cloned directionally into pcDNA3.1 mammalian expression vector; FLAG (N); expressed in transfected cells; host or cells: PC-31 / PC-3 cells stably expressing FLAG-CTRwt; ZO-1 is the cells' own
T2 sequence (P30988 with tags, fused parts or gaps): T1 sequence (P30988 25-474) with E447A, S448A, S449A
Procedure: as §1, §2, §3

calcitonin [CT]
TER (PC-3CTRwt cells; 50 nM CT): decreased TER even further; also recorded: relatively rapid decline in TER; also recorded: steady, remarkable decline | time at which decline in TER became apparent (PC-3CTRwt cells; 50 nM CT): ≤ 10 min | time to remarkable drop in TER (PC-3CTRwt cells; 50 nM CT): ≤ 30 min | TER at multiple CT concentrations (PC-3CTRwt cells; CT 10 and 100 nM): significant decrease | CTR-ZO-1 interactions (PLA dots) (CTR-ZO-1 interaction [1]): strong interaction | time of peak CTR-ZO-1 interaction after CT stimulus (CTR-ZO-1 interaction [2]): 30 s | CTR-ZO-1 interactions (PLA dots) (CTR-ZO-1 interaction [2]; 50 nM CT, 30 seconds): eighty-fold increase | CTR-ZO-1 interactions (PLA dots) (CTR-ZO-1 interaction [3]): no CTR-ZO-1 interactions were observed
